In brackets after ≈: the same amount, converted by molar mass.
Experiments:
[1] = system: Giardia intestinalis; assay: Antiprotozoal activity against clinical isolates of Giardia lamblia IMSS:8901:1; type: functional, organism-based; details: Giardia duodenalis
[2] = system: Entamoeba histolytica; assay: Antiprotozoal activity against clinical isolates of Entamoeba histolytica HM-1:IMSS; type: functional, organism-based
[3] = system: SK-LU-1; assay: Cytotoxicity against human SKLU1 cells after 48 hrs by SRB method; type: functional, cell-based; details: SK-LU-1, 48 h
[4] = system: Mus musculus; assay: Antiinflammatory activity against TPA-induced CD-1 mouse ear edema model assessed as swelling per ear after 4 hrs relative to control; type: functional, organism-based
[5] = system: PC-3; assay: Cytotoxicity against human PC3 cells after 48 hrs by SRB method; type: functional, cell-based; details: PC-3, 48 h
[6] = system: K562; assay: Cytotoxicity against human K562 cells after 48 hrs by SRB method; type: functional, cell-based; details: K562, 48 h
[7] = system: U-251; assay: Cytotoxicity against human U251 cells after 48 hrs by SRB method; type: functional, cell-based; details: U-251, 48 h
[8] = system: HCT-15; assay: Cytotoxicity against human HCT15 cells after 48 hrs by SRB method; type: functional, cell-based; details: HCT-15, 48 h
[9] = system: MCF7; assay: Cytotoxicity against human MCF7 cells after 48 hrs by SRB method; type: functional, cell-based; details: MCF7, 48 h

SMILES | IC50 [1] [µg/mL] | IC50 [2] [µg/mL] | IC50 [4] [µmol] | IC50 [3] [µM] | IC50 [5] [µM] | IC50 [6] [µM] | IC50 [7] [µM] | IC50 [8] [µM] | IC50 [9] [µM]
C[C@]12C[C@H](c3ccoc3)OC(=O)[C@H]1CC[C@@]13COC(=O)[C@H]1CC=C[C@]32O | 94.8 (≈ 265 µM) | 84.7 (≈ 236 µM) | > 1 | > 50 | > 50 | > 50 | > 50 | > 50 | > 50
C[C@]12C[C@H](c3ccoc3)OC(=O)[C@H]1CC[C@@]13COC(=O)[C@H]1C[C@@H]1O[C@@H]1[C@]32O | 63.3 (≈ 169 µM) | 56.8 (≈ 152 µM) | > 1 | > 50 | > 50 | > 50 | > 50 | > 50 | > 50
NCCc1ccc(O)cc1 [TYRAMINE] | 68.9 (≈ 502 µM) | 54.2 (≈ 395 µM) |  |  |  |  |  |  | 
C[C@]12C[C@H](c3ccoc3)OC(=O)[C@@]1(O)CC[C@@]13COC(=O)C1=CC[C@H]1O[C@]132 [TEHUANINE G] | 86.4 (≈ 232 µM) | 71.2 (≈ 191 µM) |  |  |  |  |  |  | 
Oc1cc(O)c2c(c1)O[C@H](c1ccc(O)c(O)c1)[C@@H](O)C2 [CIANIDANOL] | 33.9 (≈ 117 µM) | 65.6 (≈ 226 µM) |  |  |  |  |  |  | 
C[C@]12C[C@H](c3ccoc3)OC(=O)[C@@]1(O)CC[C@@]13COC(=O)[C@]1(O)CC=C[C@]23O | 82.1 (≈ 210 µM) | 76.3 (≈ 195 µM) | > 1 | > 50 | > 50 | > 50 | > 50 | > 50 | > 50

More lines, main results first:

IC50 [1] [µg/mL] | IC50 [2] [µg/mL] | IC50 [4] [µmol] | SMILES | IC50 [3] [µM] | IC50 [5] [µM] | IC50 [6] [µM] | IC50 [7] [µM] | IC50 [8] [µM] | IC50 [9] [µM]
42.4 (≈ 118 µM) | 56.5 (≈ 158 µM) | > 1 | C[C@]12C[C@H](c3ccoc3)OC(=O)[C@@]1(O)CC[C@@]13COC(=O)[C@@H]1C=CC[C@@H]32 | > 50 | > 50 | > 50 | > 50 | > 50 | > 50
71.7 (≈ 200 µM) | 57.4 (≈ 160 µM) |  | C[C@]12C[C@H](c3ccoc3)OC(=O)[C@H]1CC[C@@]13COC(=O)[C@@H]1C=C[C@@H](O)[C@H]23 |  |  |  |  |  | 
73.1 (≈ 204 µM) | 63.3 (≈ 177 µM) | > 1 | C[C@]12C[C@H](c3ccoc3)OC(=O)[C@@]1(O)CC[C@@]13COC(=O)[C@H]1CC=C[C@H]32 | > 50 | > 50 | > 50 | > 50 | > 50 | > 50
85.8 (≈ 229 µM) | 79.7 (≈ 213 µM) |  | C[C@]12C[C@H](c3ccoc3)OC(=O)[C@@]1(O)CC[C@@]13COC(=O)[C@H]1CC=C[C@]32O |  |  |  |  |  | 

From ChEMBL document CHEMBL2429778, “Hydroxyclerodanes from Salvia shannoni” (J Nat Prod, 2013)
